Test results as given in the supplement of paper PMC11061612.

Assays:
Assay in all cases: combination Emax (second highest fraction inhibited in the dose matrix, 72 h); higher = more inhibition; extreme values may be limits of the assay
[1] = system: SU-DHL-10 (B-Cell Non-Hodgkin's Lymphoma)
In short: (§1)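 Cell lines grown in DMEM/F12 or RPMI with 10% FBS were plated in 1536-well plates and held 24 hours at 37°C, 5% CO2 before 72 hours of exposure to two-drug dose matrices, with DMSO typically at 0.2%. CellTiter-Glo 2.0 luminescence gave viability, which was converted to inhibition. Vehicle wells were set to 0 and blank wells to 1. Combination Emax is the second-highest inhibition in the matrix, and Bliss excess is the observed combination effect minus the expected EA + EB − EA·EB, where EA and EB are the single-agent effects.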

[2] = system: OVMIU (Ovarian Carcinoma)
In short: as §1

[3] = system: HCT-15 (Colorectal Carcinoma)
In short: as §1

[4] = system: NCI-H446 (Small Cell Lung Carcinoma)
In short: as §1

[5] = system: GP5d (Colorectal Carcinoma)
In short: as §1

[6] = system: HSC-39 (Gastric Carcinoma)
In short: as §1

[7] = system: SHP-77 (Small Cell Lung Carcinoma)
In short: as §1

[8] = system: MKN45 (Gastric Carcinoma)
In short: as §1

[9] = system: PSN1 (Pancreatic Carcinoma)
In short: as §1

[10] = system: RERF-GC-1B (Gastric Carcinoma)
In short: as §1

[11] = system: VAL (B-Cell Non-Hodgkin's Lymphoma)
In short: as §1

[12] = system: RCM-1 (Colorectal Carcinoma)
In short: as §1

[13] = system: OPM-2 (Plasma Cell Myeloma)
In short: as §1

[14] = system: A2058 (Melanoma)
In short: as §1

[15] = system: RKN (Other Solid Carcinomas)
In short: as §1

[16] = system: PC-3_[JPC-3] (Lung Adenocarcinoma)
In short: as §1

[17] = system: FADU (Head and Neck Carcinoma)
In short: as §1

[18] = system: TE-8 (Esophageal Squamous Cell Carcinoma)
In short: as §1

[19] = system: L-1236 (Hodgkin's Lymphoma)
In short: as §1

[20] = system: GB-1 (Glioblastoma)
In short: as §1

| SMILES | combination Emax [1] | combination Emax [2] | combination Emax [3] | combination Emax [4] | combination Emax [5] | combination Emax [6] | combination Emax [7] | combination Emax [8] | combination Emax [9] | combination Emax [10] | combination Emax [11] | combination Emax [12] | combination Emax [13] | combination Emax [14] | combination Emax [15] | combination Emax [16] | combination Emax [17] | combination Emax [18] | combination Emax [19] | combination Emax [20] |
| --- | --- | --- | --- | --- | --- | --- | --- | --- | --- | --- | --- | --- | --- | --- | --- | --- | --- | --- | --- | --- |
| NC1(C(=O)N[C@@H](CCO)c2ccc(Cl)cc2)CCN(c2ncnc3[nH]ccc23)CC1 [Capivasertib] + CC(C)n1c(=O)n(C)c2cnc3cc(F)c(-c4ccc(OCCCN5CCCCC5)nc4)cc3c21 [AZD1390] (first compound max 10 µM, 7x7, partner max 0.3 µM) | 1 | 0.353 | 0.312 | 0.643 | 0.669 | 0.432 | 0.226 | 0.432 | 0.256 | 0.433 | 0.609 | 0.253 | 0.931 | 0.458 | 0.365 | 0.176 | 0.221 | 0.502 | 0.759 | 0.275 |
| NC1(C(=O)N[C@@H](CCO)c2ccc(Cl)cc2)CCN(c2ncnc3[nH]ccc23)CC1 [Capivasertib] + Cn1cnc2c(F)c(Nc3ccc(Br)cc3Cl)c(C(=O)NOCCO)cc21 [Selumetinib] (first compound max 10 µM, 7x7, partner max 10 µM) | 1 | 0.585 | 0.559 | 0.657 | 0.807 | 0.852 | 0.384 | 0.705 | 0.772 | 0.6 | 0.607 | 0.668 | 1 | 0.895 | 0.479 | 0.382 | 0.531 | 0.624 | 0.844 | 0.588 |
| Cc1cc2ncnn2cc1Nc1ncc2c(n1)n(C1CCOCC1)c(=O)n2C [AZD7648] + C=CCn1c(=O)c2cnc(Nc3ccc(N4CCN(C)CC4)cc3)nc2n1-c1cccc(C(C)(C)O)n1 [AZD1775] (first compound max 10 µM, partner max 1 µM) | 0.978 | 0.635 | 0.736 | 0.839 | 0.704 | 0.936 | 0.432 | 0.804 | 0.557 | 0.788 | 0.864 | 0.596 | 0.864 | 0.24 | 0.248 | 0.483 | 0.546 | 0.814 | 0.767 | 0.439 |
| COc1nnc2ccc(N3CCC(c4ccc(OCCN5CCN(C)C(=O)[C@H]5C)cc4)CC3)nn12 [AZD5153] + CC1(C)CCC(CN2CCN(c3ccc(C(=O)NS(=O)(=O)c4ccc(NCC5CCOCC5)c([N+](=O)[O-])c4)c(Oc4cnc5[nH]ccc5c4)c3)CC2)=C(c2ccc(Cl)cc2)C1 [Venetoclax] (first compound max 1 µM, 7x7, partner max 1 µM) | 1 | 0.666 | 0.724 | 0.858 | 0.682 | 0.676 | 0.405 | 0.566 | 0.334 | 0.702 | 0.996 | 0.557 | 1 | 0.432 | 0.485 | 0.364 | 0.521 | 0.491 | 0.997 | 0.256 |
| Cc1nc(Nc2ncc(C(=O)Nc3c(C)cccc3Cl)s2)cc(N2CCN(CCO)CC2)n1 [Dasatinib] + CC(=O)Nc1cccc(-n2c(=O)n(C3CC3)c(=O)c3c(Nc4ccc(I)cc4F)n(C)c(=O)c(C)c32)c1 [Trametinib] (first compound max 2 µM, 7x7, partner max 1 µM) | 0.837 | 0.798 | 0.71 | 0.444 | 0.697 | 0.498 | 0.172 | 0.79 | 0.942 | 1 | 0.691 | 0.798 | 0.801 | 0.644 | 0.712 | 0.738 | 0.515 | 0.865 | 0.243 | 0.701 |
| CN(CCO)CC[C@H](CSc1ccccc1)Nc1ccc(S(=O)(=O)NC(=O)c2ccc(N3CCC([C@@H](O)c4ccccc4-c4ccc(Cl)cc4)CC3)cc2)cc1S(=O)(=O)C(F)(F)F [AZD4320] + C[C@@H](Nc1cc(F)cc(F)c1)c1cc(C(=O)N(C)C)cc2c(=O)cc(N3CCOCC3)oc12 [AZD8186] (first compound max 1 µM, 7x7, partner max 3 µM) | 0.81 | 0.534 | 0.187 | 0.811 | 0.644 | 0.62 | 0.53 | 0.345 | 0.487 | 0.549 | 1 | 0.532 | 0.589 | 0.765 | 0.314 | 0.562 | 0.846 | 0.463 | 0.981 | 0.548 |
